Source: patent US6340741B1, “Potent genetic switch allowing regulated gene expression in eukaryotic cells” (University of Lausanne, priority 1998, dated 2002)

Test system: p5xGTTI-Luc+ luciferase reporter in BHK 21 cells
Test: Repression of luciferase reporter activated by constitutive GAL4-VP16, transient transfection of BHK 21 cells (Example 2)
Type: cell-based, hamster
Settings: 100 ng/ml dox
Procedure: Baby hamster kidney 21 (BHK 21) cells were cultivated in DMEM (Gibco-BRL) supplemented with 10% FCS (Gibco-BRL). For transfectiors, cells were seeded in 24 well plates at about 40% confluency and allowed to attach to the surface. After washing with PBS, cells were exposed to the transfection mix for 4 hours. Thereafter, the transfection mix was replaced by medium which contained, where indicated, 100 ng/ml doxycycline hydrochloride (Sigma #D9891). Generally, medium was replaced every 24 hours and cells were harvested 48 hours post-transfection.
For luciferase and β-galactosidase measurements, cell extracts were prepared as follows. […] After a delay of 2 sec light emission was measured for 2 sec.
Colorimetric determination of β-galactosidase activity was performed by adding 150 μl CPRG buffer (60 mM Na2HPO4 7 H2O, 40 mM NaH2PO4, 10 mM KCl, 1 mM MgSO4, 50 mM β-mercaptoethanol) and 20 μl CPRG solution (Boehringer Mannheim #884308, 4 mg/ml in H2O) to the remaining 30 μl cell extract in the 96 well plate. […] Absorbance was measured at 575 nm in a plate reader (Spectramax 340, Molecular Devices) and samples were normalized to wells in which lysis buffer was assayed.
Relative light units were calculated by normalizing luciferase for β-galactosidase activity. […]

With `C[C@H]1c2cccc(O)c2C(=O)C2=C(O)[C@]3(O)C(=O)C(C(N)=O)=C(O)[C@@H](N(C)C)[C@@H]3[C@@H](O)[C@@H]21.Cl` [dox, doxycycline hydrochloride] the “effect of addition of the dox ligand on repression” value was “abolished the repression”.
